From the NIST ThermoML archive (doi:10.1016/j.jct.2017.03.011)
Numbers after ± are expanded uncertainties.

Experiments:
[1] = Molar enthalpy of transition or fusion; conditions: DSC

Normal melting temperature (Crystal 1, DTA): 83.00 ± 2 °C
Triple point temperature (Crystal 2, DSC): 316.55 ± 2.1 K
Molar enthalpy of transition or fusion ([1]; Crystal 1): 13.7 ± 1.4 kJ/mol
Molar enthalpy of transition or fusion ([1]; Crystal 2): 1.74 ± 0.2 kJ/mol
SMILES: O=C1COC(=O)CO1 [1,4-dioxane-2,5-dione]
